Measurements reported in PMC10060004, “A Self-Immolative Linker for the pH-Responsive Release of Amides” (Molecules, 2023).

What was measured:
[1] = Stability in solution at pH 7.4 (PBS / phosphate buffer), HPLC; format: physicochemical; settings: for stability in solution at pH 7.4: PBS solution, pH 7.4, 48 h; for pH 7.4, percentage of unmodified compound / pH 7.4, t1/2: pH 7.4 solution; for pH 7.4, percentage of unmodified compound: after 48 h of incubation; for pH 7.4, t1/2: time before half of the drug is degraded
Method: (§1) General procedure for release experiments. A 10 mM stock-solution of compounds 8a, 8b, 10, 15, 17, and 18 was prepared in DMSO and diluted in the corresponding buffers to obtain a 1 mM solution. In the case of compound 16, the 10 mM stock-solution was diluted in the corresponding buffer and additionally diluted with DMSO to obtain a final 0.67 mM solution in buffer/H2O/DMSO. For analysis at pH 7.4 and 6, phosphate buffers of 0.1 M were used (KH2PO4/K2HPO4). For pH 5.5 and 4.5, acetate buffer of 0.1 M was used (CH3COONa/CH3COOH). All compounds were mixed with the buffers at 25 °C and further incubated at 37 °C. HPLC analyses were carried out following the method reported in SI every 1–3 h up to 6 h and every 6 h up to 48 h.

[2] = Release experiments (hydrolysis / payload release) in acidic acetate buffer, HPLC; format: physicochemical; settings: for peak intensity of the conjugate at pH 4.5: pH 4.5, HPLC
Method: as §1

Stability test in water = format: physicochemical; settings: for H2O, percentage of unmodified compound: after 48 h of incubation; for half-life: time before half of the drug is degraded, read-out: H2O, t1/2
Method: as §1

[3] = Stability in plasma experiments (pooled human plasma, UV/LC-MS); format: in vitro ADME; settings: for Plasma, percentage of unmodified compound: 37 °C, after 24 h of incubation; for half-life at 100 µM: pooled human plasma, pH 7.4, 37 °C, time before half of the drug is degraded, read-out: Plasma, t1/2
Method: Stability in plasma experiments. Pooled human plasma, purchased from Merck (0.9 mL, […]); hepes buffer (1.0 mL, 25 mM, NaCl 140 mM, pH 7.4); and tested compound dissolved in DMSO (100 µL, 2.0 mM) were mixed in a test tube incubated at 37 °C under continuous mechanical agitation. At set time points (0.0, 0.25, 0.50, 1.0, 3.0, 5.0, 8.0, and 24.0 h), samples of 100 µL were taken, mixed with 400 µL of cold acetonitrile, and centrifuged at 5000 rpm for 15 min. The supernatant was collected and analysed by UV/LC-MS to monitor the amount of unmodified compound. LC analyses of plasma stability tests were performed using Agilent 1100 LC/MSD VL system (G1946C) (Agilent Technologies, Palo Alto, CA, USA) constituting a vacuum solvent degassing unit, a binary high-pressure gradient pump, an 1100 series UV detector, and an 1100 MSD model VL benchtop mass spectrometer. A MSD single-quadrupole instrument was equipped with the orthogonal spray API-ES (Agilent Technologies, Palo Alto, CA, USA). The pressure of the nebulizing gas and the flow of the drying gas (nitrogen used for both) were set at 40 psi and 9 L/min, respectively. The capillary voltage, fragmentation voltage, and vaporization temperature were 3000 V, 10 V, and 350 °C, respectively. MSD was used in the positive and negative ion mode. Spectra were acquired over the scan range m/z 100–2000 using a step size of 0.1. Chromatographic analyses were performed using a Phenomenex Kinetex EVO C18-100Å (150 × 4.6 mm, 5 μm particle size) at room temperature, at a flow rate of 0.6 mL/min, injection volume of 10 μL, operating with a gradient elution of A: water (H2O) and B: acetonitrile (ACN). Both solvents were acidified with 0.1% v/v of formic acid. UV detection was monitored at 254 nm. The analysis started with 0% of B, then B was increased to 80% (from t = 0 to t = 20 min), then kept at 80% (from t = 20 to t = 25 min), and finally returned to 0% of eluent B in 5.0 min.

SMILES | stability in solution at pH 7.4 [1] | peak intensity of the conjugate at pH 4.5 [2] | H2O, percentage of unmodified compound (Stability test in water) [%] | half-life (Stability test in water) [h] | pH 7.4, percentage of unmodified compound [1] [%] | pH 7.4, t1/2 [1] [h] | Plasma, percentage of unmodified compound [3] [%] | half-life at 100 µM [3] [h] | drug released at pH 5.5 after 48 h ([2]; pH 5.5, after 48 h) | rate of release at pH 5.5 (qualitative) ([2]; pH 5.5, compared with the other derivatives) | free Enzalutamide 9 detected at pH 4.5 ([2]; pH 4.5, 48 h, 37 °C) [%] | amide 9 released at pH 5.5 ([2]; pH 5.5, after 48 h at 37 °C)
C#CCOc1cc(COC(=O)N(C)C(=O)c2ccc(N3C(=S)N(c4ccc(C#N)c(C(F)(F)F)c4)C(=O)C3(C)C)cc2F)ccc1OCOC [Compound 10, 4-(Methoxymethoxy)-3-(prop-2-yn-1-yloxy)benzyl (4-(3-(4-cyano-3-(trifluoromethyl)-phenyl)-5,5-dimethyl-4-oxo-2-thioxoimidazolidin-1-yl)-2-fluorobenzoyl)(methyl)-carbamate] | stable | decreased | – | – | – | – | – | – | – | – | 40 | only a small amount
C#CCOc1cc(COC(=O)N(C[C@H]2CN(c3ccc(N4CCOCC4)c(F)c3)C(=O)O2)C(C)=O)cc2c1OC(OCC)O2 (stereo partly drawn) [Compound 15, (2-Ethoxy-7-(prop-2-yn-1-yloxy)benzo[d][1,3]dioxol-5-yl)methyl acetyl(((R)-3-(3-fluoro-4-morpholinophenyl)-2-oxooxazolidin-5-yl)methyl)carbamate] | – | – | 99 | > 48 | 94 | > 48 | 95 | > 24 | – | – | – | –
C#CCOc1cc(COC(=O)N(C)C(=O)c2ccc(N3C(=S)N(c4ccc(C#N)c(C(F)(F)F)c4)C(=O)C3(C)C)cc2F)cc2c1OC(OCC)O2 (stereo not shown) [Compound 16, (2-Ethoxy-7-(prop-2-yn-1-yloxy)benzo[d][1,3]dioxol-5-yl)methyl (4-(3-(4-cyano-3-(trifluoromethyl)phenyl)-5,5-dimethyl-4-oxo-2-thioxoimidazolidin-1-yl)-2-fluorobenzoyl)(methyl)carbamate] | – | – | 99 | > 48 | 95 | > 48 | 89 | > 24 | – | – | – | –
C#CCOc1cc(COC(=O)NS(=O)(=O)c2ccc(C)cc2)cc2c1OC(OCC)O2 (stereo not shown) [Compound 18, (2-Ethoxy-7-(prop-2-yn-1-yloxy)benzo[d][1,3]dioxol-5-yl)methyl tosylcarbamate] | – | – | 99 | > 48 | 92 | > 48 | 84 | > 24 | no more than 80% | faster | – | –

Second part, led by results:

stability in solution at pH 7.4 [1] | peak intensity of the conjugate at pH 4.5 [2] | H2O, percentage of unmodified compound (Stability test in water) [%] | half-life (Stability test in water) [h] | pH 7.4, percentage of unmodified compound [1] [%] | pH 7.4, t1/2 [1] [h] | Plasma, percentage of unmodified compound [3] [%] | half-life at 100 µM [3] [h] | drug released at pH 5.5 after 48 h ([2]; pH 5.5, after 48 h) | rate of release at pH 5.5 (qualitative) ([2]; pH 5.5, compared with the other derivatives) | SMILES | free Enzalutamide 9 detected at pH 4.5 ([2]; pH 4.5, 48 h, 37 °C) [%] | amide 9 released at pH 5.5 ([2]; pH 5.5, after 48 h at 37 °C)
stable | decreased | – | – | – | – | – | – | – | – | C#CCOc1cc(COC(=O)N(C[C@H]2CN(c3ccc(N4CCOCC4)c(F)c3)C(=O)O2)C(C)=O)ccc1OCOC [Compound 8a, 4-(Methoxymethoxy)-3-(prop-2-yn-1-yloxy)benzyl (R)-acetyl((3-(3-fluoro-4-morpholino-phenyl)-2-oxooxazolidin-5-yl)methyl)carbamate] | – | –
stable | decreased | – | – | – | – | – | – | – | – | C#CCOc1cc(COC(=O)N(C[C@@H]2CN(c3ccc(N4CCOCC4)c(F)c3)C(=O)O2)C(C)=O)ccc1OCOCCOC [Compound 8b, {[3-(3-Fluoro-4-morpholinophenyl)-2-oxo-1,3-oxazolidin-5-yl]methyl}acetylamino-{4-[(2-methoxyethoxy)methoxy]-3-(2-propynyloxy)-phenyl}methylformylate] | – | –
